# Measurements: patent US10611740B2, “Aryl dihydro-2H-benzo[b][1,4]oxazine sulfonamide and related compounds for use as agonists of RORγ and the treatment of disease” (Lycera Corporation, priority 2015, dated 2020)
# Columns and labels:
# RORγ-LBD = target: T1, RORγ-LBD (Homo sapiens, UniProt P51449); assay: RORγ-Ligand Binding Domain (LBD) TR-FRET Assay; type: biochemical;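 as to TR-FRET Assay Max Response: 665/615 nm ratio relative to signal without ursolic acid or compound set at 100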
# T1 construct: made in house; host or cells: SF9 cells (baculovirus)
# T1 sequence (P51449 269-508 limits assumed): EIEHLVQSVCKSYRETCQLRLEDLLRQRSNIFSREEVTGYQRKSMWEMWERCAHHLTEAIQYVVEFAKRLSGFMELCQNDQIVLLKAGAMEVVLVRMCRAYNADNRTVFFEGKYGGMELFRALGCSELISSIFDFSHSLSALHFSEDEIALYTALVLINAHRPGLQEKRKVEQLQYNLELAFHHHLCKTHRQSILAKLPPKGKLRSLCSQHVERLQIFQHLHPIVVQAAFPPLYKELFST
# Method in brief: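 His-tagged RORγ-LBD from SF9 baculovirus lysate, ~3 nM final, in 50 mM Tris pH 7.0, 50 mM KCl, 1 mM EDTA, 0.1 mM DTT, 0.01% BSA. Biotinylated SRC1 LXXLL peptide at 200 nM final with 2 μM ursolic acid; TR-FRET read-out, 1% DMSO final.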
# Gal4-RORγ-LBD = target: T2, Gal4-RORγ-LBD (Homo sapiens, UniProt P51449); assay: Gal4-RORγ Luciferase Reporter Assay in HEK-293T Cells; type: cell-based; conditions: HEK-293 cells, luciferase reporter, with 2 μM ursolic acid
# T2 construct: expressed in transfected cells; host or cells: HEK-293 cells (pcDNA3.1neo plasmid)
# T2 sequence (P51449 269-508 limits assumed): T1 sequence (P51449 269-508 limits assumed)
# Method in brief: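 HEK-293 cells were transiently co-transfected with Gal4-RORγ-LBD and pGL4.31 Gal4-luciferase, with ursolic acid added at 2 μM final. Compounds were incubated overnight at 37° C. in 0.2% DMSO and luminescence read with One-Glo. Max Response is the upper plateau of a 4-parameter logistic fit, with signal lacking ursolic acid or compound set to 100.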
SMILES,EC50 (RORγ-LBD),TR-FRET Assay Max Response (RORγ-LBD),EC50 (Gal4-RORγ-LBD),Gal4-RORγ Assay Max Response (Gal4-RORγ-LBD)
"O=C(O)CC[C@H]1CN(S(=O)(=O)c2cccc(C(F)(F)F)c2)c2cc(-c3nc(C(F)(F)F)cs3)ccc2O1 [Compound 4G, (S)-3-(4-((3-(trifluoromethyl)phenyl)sulfonyl)-6-(4-(trifluoromethyl)thiazol-2-yl)-3,4-dihydro-2H-benzo[b][1,4]oxazin-2-yl)propanoic acid]",< 500 nM,**** (The symbol “****” indicates a value greater than 200),500 to 5000 nM,** (The symbol “**” indicates a value in the range of greater than 90 to 150)
"O=C(O)CC[C@H]1CN(S(=O)(=O)c2cccc(C(F)(F)F)c2)c2cc(-c3ncc(C(F)(F)F)s3)ccc2O1 [Compound 4H, (S)-3-(4-((3-(trifluoromethyl)-phenyl)sulfonyl)-6-(5-(trifluoromethyl)thiazol-2-yl)-3,4-dihydro-2H-benzo[b][1,4]oxazin-2-yl)propanoic acid]",< 500 nM,*** (The symbol “***” indicates a value in the range of greater than 150 to 200),500 to 5000 nM,* (The symbol “*” indicates a value in the range of 25 to 90)
"O=C(O)CC[C@H]1CN(S(=O)(=O)c2cccc(C(F)(F)F)c2)c2cc(-c3cccc(Cl)n3)ccc2O1 [Compound 4I, (S)-3-(6-(6-chloropyridin-2-yl)-4-((3-(trifluoromethyl)phenyl)-sulfonyl)-3,4-dihydro-2H-benzo[b][1,4]oxazin-2-yl)propanoic acid]",< 500 nM,*** (The symbol “***” indicates a value in the range of greater than 150 to 200),< 500 nM,** (The symbol “**” indicates a value in the range of greater than 90 to 150)
"O=C(O)CC[C@H]1CN(S(=O)(=O)c2cccc(C(F)(F)F)c2)c2cc(-c3cccn4ccnc34)ccc2O1 [Compound 4J, (S)-3-(6-(imidazo[1,2-a]pyridin-8-yl)-4-((3-(trifluoromethyl)-phenyl)sulfonyl)-3,4-dihydro-2H-benzo[b][1,4]oxazin-2-yl)propanoic acid]",< 500 nM,**** (The symbol “****” indicates a value greater than 200),500 to 5000 nM,** (The symbol “**” indicates a value in the range of greater than 90 to 150)
"Cn1cncc1-c1ccc2c(c1)N(S(=O)(=O)c1cccc(C(F)(F)F)c1)C[C@H](CCC(=O)O)O2 [Compound 4K, (S)-3-(6-(1-methyl-1H-imidazol-5-yl)-4-((3-(trifluoromethyl)-phenyl)sulfonyl)-3,4-dihydro-2H-benzo[b][1,4]oxazin-2-yl)propanoic acid]",500 to 5000 nM,**** (The symbol “****” indicates a value greater than 200),> 10000 nM,
"Cn1ccnc1-c1ccc2c(c1)N(S(=O)(=O)c1cccc(C(F)(F)F)c1)C[C@H](CCC(=O)O)O2 [Compound 4L, (S)-3-(6-(1-methyl-1H-imidazol-2-yl)-4-((3-(trifluoromethyl)-phenyl)sulfonyl)-3,4-dihydro-2H-benzo[b][1,4]oxazin-2-yl)propanoic acid]",> 10000 nM,**** (The symbol “****” indicates a value greater than 200),> 10000 nM,
"Cn1cnc(-c2ccc3c(c2)N(S(=O)(=O)c2cccc(C(F)(F)F)c2)C[C@H](CCC(=O)O)O3)n1 [Compound 4M, (S)-3-(6-(1-methyl-1H-1,2,4-triazol-3-yl)-4-((3-(trifluoro-methyl)phenyl)sulfonyl)-3,4-dihydro-2H-benzo[b][1,4]-oxazin-2-yl)propanoic acid]",< 500 nM,**** (The symbol “****” indicates a value greater than 200),> 10000 nM,* (The symbol “*” indicates a value in the range of 25 to 90)
"O=C(O)CC[C@H]1CN(S(=O)(=O)c2cccc(C(F)(F)F)c2)c2cc(-c3ncc4ccccn34)ccc2O1 [Compound 4N, (S)-3-(6-(imidazo[1,5-a]pyridin-3-yl)-4-((3-(trifluoromethyl)-phenyl)sulfonyl)-3,4-dihydro-2H-benzo[b][1,4]oxazin-2-yl)propanoic acid]",< 500 nM,**** (The symbol “****” indicates a value greater than 200),500 to 5000 nM,** (The symbol “**” indicates a value in the range of greater than 90 to 150)
"O=C(O)CC[C@H]1CN(S(=O)(=O)c2cccc(C(F)(F)F)c2)c2cc(-c3cnn4ccccc34)ccc2O1 [Compound 4O, (S)-3-(6-(pyrazolo[1,5-a]pyridin-3-yl)-4-((3-(trifluoromethyl)-phenyl)sulfonyl)-3,4-dihydro-2H-benzo[b][1,4]oxazin-2-yl)propanoic acid]",< 500 nM,*** (The symbol “***” indicates a value in the range of greater than 150 to 200),500 to 5000 nM,** (The symbol “**” indicates a value in the range of greater than 90 to 150)
"O=C(O)CC[C@H]1CN(S(=O)(=O)c2cccc(C(F)(F)F)c2)c2cc(-c3cccc4nccn34)ccc2O1 [Compound 4P, (S)-3-(6-(imidazo[1,2-a]pyridin-5-yl)-4-((3-(trifluoromethyl)-phenyl)sulfonyl)-3,4-dihydro-2H-benzo[b][1,4]oxazin-2-yl)propanoic acid]",< 500 nM,** (The symbol “**” indicates a value in the range of greater than 90 to 150),5000 to 10000 nM,** (The symbol “**” indicates a value in the range of greater than 90 to 150)
"Cn1cnc(-c2ccc3c(c2)N(S(=O)(=O)c2cccc(C(F)(F)F)c2)C[C@H](CCC(=O)O)O3)c1 [Compound 4Q, (S)-3-(6-(1-methyl-1H-imidazol-4-yl)-4-((3-(trifluoromethyl)-phenyl)sulfonyl)-3,4-dihydro-2H-benzo[b][1,4]oxazin-2-yl)propanoic acid]",500 to 5000 nM,** (The symbol “**” indicates a value in the range of greater than 90 to 150),> 10000 nM,
"O=C(O)CC[C@H]1CN(S(=O)(=O)c2cccc(C(F)(F)F)c2)c2cc(-c3cccc(C4CC4)c3)ccc2O1 [Compound 4R, (S)-3-(6-(3-cyclopropylphenyl)-4-((3-(trifluoromethyl)phenyl)-sulfonyl)-3,4-dihydro-2H-benzo[b][1,4]oxazin-2-yl)propanoic acid]",< 500 nM,**** (The symbol “****” indicates a value greater than 200),< 500 nM,**** (The symbol “****” indicates a value greater than 200)
"Cc1cccc(-c2ccc3c(c2)N(S(=O)(=O)c2cccc(C(F)(F)F)c2)C[C@H](CCC(=O)O)O3)n1 [Compound 4S, (S)-3-(6-(6-methylpyridin-2-yl)-4-((3-(trifluoromethyl)phenyl)-sulfonyl)-3,4-dihydro-2H-benzo[b][1,4]oxazin-2-yl)propanoic acid]",< 500 nM,**** (The symbol “****” indicates a value greater than 200),500 to 5000 nM,**** (The symbol “****” indicates a value greater than 200)
"O=C(O)CC[C@H]1CN(S(=O)(=O)c2cccc(C(F)(F)F)c2)c2cc(-c3cccc(OC(F)F)c3)ccc2O1 [Compound 4T, (S)-3-(6-(3-(difluoromethoxy)-phenyl)-4-((3-(trifluoromethyl)-phenyl)sulfonyl)-3,4-dihydro-2H-benzo[b][1,4]oxazin-2-yl)propanoic acid]",< 500 nM,**** (The symbol “****” indicates a value greater than 200),< 500 nM,**** (The symbol “****” indicates a value greater than 200)
"Cc1nn(C)c(C)c1-c1ccc2c(c1)N(S(=O)(=O)c1cccc(C(F)(F)F)c1)C[C@H](CCC(=O)O)O2 [Compound 4U, (S)-3-(4-((3-(trifluoromethyl)-phenyl)sulfonyl)-6-(1,3,5-trimethyl-1H-pyrazol-4-yl)-3,4-dihydro-2H-benzo[b][1,4]-oxazin-2-yl)propanoic acid]",500 to 5000 nM,* (The symbol “*” indicates a value in the range of 25 to 90),500 to 5000 nM,* (The symbol “*” indicates a value in the range of 25 to 90)
"O=C(O)CC[C@H]1CN(S(=O)(=O)c2cccc(C(F)(F)F)c2)c2cc(-c3cccc4ccnn34)ccc2O1 [Compound 4V, (S)-3-(6-(pyrazolo[1,5-a]-pyridin-7-yl)-4-((3-(trifluoro-methyl)-phenyl)sulfonyl)-3,4-dihydro-2H-benzo[b][1,4]-oxazin-2-yl)propanoic acid]",< 500 nM,**** (The symbol “****” indicates a value greater than 200),500 to 5000 nM,** (The symbol “**” indicates a value in the range of greater than 90 to 150)
